Measurements: patent publication US20250099405A1, “COMPOSITIONS, METHODS, AND DEVELOPMENT OF ARID4B INHIBITORS” (University of Kentucky Research Foundation, priority 2022, published 2025)

Target: T1, HA-ARID4BAC (Homo sapiens, UniProt Q4LE39, DEL571-624)
T1 construct: transfected with vector, full-length ARID4B or ARID4B deletion mutants; expressed in transfected cells; host or cells: HEK-293T
T1 sequence (Q4LE39 with tags, fused parts or gaps DEL571-624): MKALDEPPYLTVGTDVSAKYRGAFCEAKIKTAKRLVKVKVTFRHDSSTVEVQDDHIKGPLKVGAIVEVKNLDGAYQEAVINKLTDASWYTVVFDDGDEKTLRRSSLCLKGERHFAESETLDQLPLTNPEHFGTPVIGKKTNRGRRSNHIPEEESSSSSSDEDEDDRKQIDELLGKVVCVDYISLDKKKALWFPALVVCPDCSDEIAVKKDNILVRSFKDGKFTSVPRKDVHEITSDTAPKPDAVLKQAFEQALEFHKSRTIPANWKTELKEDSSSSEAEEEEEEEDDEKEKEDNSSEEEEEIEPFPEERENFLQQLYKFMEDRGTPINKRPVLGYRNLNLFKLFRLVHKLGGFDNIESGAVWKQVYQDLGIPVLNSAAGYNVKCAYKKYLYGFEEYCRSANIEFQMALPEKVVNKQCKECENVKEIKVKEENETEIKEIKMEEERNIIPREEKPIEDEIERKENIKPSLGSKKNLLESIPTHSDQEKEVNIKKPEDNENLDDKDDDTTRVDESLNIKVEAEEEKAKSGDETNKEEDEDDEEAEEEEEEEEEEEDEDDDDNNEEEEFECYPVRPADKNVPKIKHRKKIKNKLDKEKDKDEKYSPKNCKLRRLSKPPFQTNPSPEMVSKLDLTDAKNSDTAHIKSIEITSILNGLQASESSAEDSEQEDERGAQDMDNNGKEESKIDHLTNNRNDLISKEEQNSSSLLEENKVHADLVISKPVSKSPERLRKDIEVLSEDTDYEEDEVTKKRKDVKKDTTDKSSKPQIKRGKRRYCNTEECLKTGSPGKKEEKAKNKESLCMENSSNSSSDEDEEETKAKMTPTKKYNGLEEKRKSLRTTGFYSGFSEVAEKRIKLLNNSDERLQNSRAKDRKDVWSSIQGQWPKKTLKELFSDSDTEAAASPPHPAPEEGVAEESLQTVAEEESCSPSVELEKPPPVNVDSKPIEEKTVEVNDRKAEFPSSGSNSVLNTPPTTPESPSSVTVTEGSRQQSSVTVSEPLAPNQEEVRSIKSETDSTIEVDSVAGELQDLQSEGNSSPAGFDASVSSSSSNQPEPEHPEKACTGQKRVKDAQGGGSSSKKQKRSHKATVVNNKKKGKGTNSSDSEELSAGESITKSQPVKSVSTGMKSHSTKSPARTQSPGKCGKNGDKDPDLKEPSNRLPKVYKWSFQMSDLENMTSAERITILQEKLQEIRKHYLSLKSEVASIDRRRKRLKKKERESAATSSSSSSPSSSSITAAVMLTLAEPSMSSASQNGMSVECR
Assay: CETSA in HEK-293T cells expressing the chromodomain deletion mutant
Type: cell-based
Conditions: 10 μM, 2 h
Method: (B-C) show cells expressing HA-ARID4B (C) or HA-ARID4BIC (D) treated or not with ARD150 (10 μM) for 2 h were used for CESTA. […] (D-E) show cells expressing HA-ARID4B (D) or Flag-ARID4A (E) treated or not with RWR-18 (10 μM) for 2 h were used for CESTA. […] Data are means±SEM from three experiments. *P<0.05, **P<0.01, ns, not significant.
Using CETSA (cellular thermal shift assay) to examine whether ARD150 or RWR-18 binds to ARID4B, MCF7 cells treated or not with ARD150 or RWR-18 for 2 h were collected, followed by heating at 46, 49, 52, 55, and 58° C. to denature and precipitate ARID4B protein, cell lysis, removal of cell debris and aggregates by centrifugation, and finally detection of remaining thermostable ARID4B protein by western blot. The ARID4B aggregation temperatures without ARD150 were determined to be 49-52° C., but shifted to 52-55° C. after treatment with ARD150 and even more so with RWR-18 (FIG. 15A-D). To determine whether ARD150 and RWR-18 targets the chromodomain of ARID4B, CESTA was performed using chromodomain deletion mutant (ARID4BAC). HEK-293T cells expressing HA-ARID4B or HA-ARID4BAC were treated or not with ARD150 (10 μM) for 2 h and processed for CESTA.

Compound: COc1ccc(C(=O)NCCCN2CCOCC2)cc1OC [ARD150]
- shift of aggregation temperatures of HA-ARID4BAC (chromodomain deletion mutant): no shift was observed
